# Data: patent US20060069040A1, “GHB compositions” (priority 2004, published 2006)
# Read-outs that look alike come from different tables or passages of the source.
# Experiments:
# [1] = tested on: male Wistar rats; experiment: Core body temperature (Tb) and locomotor activity (LMA) recording by implanted transmitter; format: in vivo; conditions: IP dosing at ZT19, GHB 200 mg/kg in all drug conditions, comparators and ZT hours in the value
# [2] = tested on: CD-1 male mice; format: in vivo
# Experimental: (§1) CD-1 male mice (30-40 g) were housed 3 to 4 per cage in the animal care facility on a 12 hour light dark cycle with free access to water and food for at least 1 week before testing.
# The Rota-rod is a validated and sensitive tool that has been developed to document neurological deficits after pharmacological treatments. In this test, mice are placed on an accelerating Rota-rod whose revolutions per minute increase from 4 to 40 cycles per minute in about 4 minutes. The time it takes for the mice to fall off the rod is the end point of the test. Initially, the mice were given 3 practice runs on the rod to familiarize themselves with the test procedure. The time that mice remained on the rod was usually between five and ten minutes. A baseline measure was then made, the test drug given and the test procedure run every 20 minutes starting at time 0, immediately after drug administration. The mice were tested for 160 minutes after GHB administration although in some experiments recordings were made for as long as 280 minutes. Motor activity was expressed as a percentage of the baseline value. The time it took the mice to fall off the rod at a given time point after drug administration was divided by the time it took at baseline.
# (§2) Statistical significance between control and treated groups at each time point in the present study was determined by student's t-test. Note that values of motor activity were expressed as a percentage of the baseline value which was normalized to 100%.
# [3] = tested on: CD-1 male mice; experiment: Passivity test (sleep induction and sleep time); format: in vivo; conditions: for Passivity test scores (2-8): 10 minutes after injection, 6 non-fasting mice, 0-normal, 8-no struggle
# Experimental: as §1
# The passivity test developed by Irwing was used to determine sleep time. After GHB administration, the mice were placed in an unusual position and a score of 2, 4, 6, or 8 was given when the mice ceased to struggle against respectively being suspended vertically, rotated horizontally onto their backs, suspended by their hind limbs or suspended by their forelimbs. Scores on the passivity test were determined every 10 minutes after GHB administration. […] The time between scores of 8 and 2 was defined as the total sleep time.
# as §2
# The optimal dose of GHB for inducing sleep was determined with the passivity test. GHB was dissolved in 0.9% NaCl and 1% Tween 80 and delivered intraperitoneally (i.p.) to 4 groups of 6 mice that had not been fasting. Each group received either 200 mg/kg, 400 mg/kg, 600 mg/kg and 800 mg/kg. […] For this reason, this dose was used in the initial exploratory studies.
# [4] = tested on: male Wistar rats; experiment: EEG/EMG sleep recording after IP dosing; conditions: for NR bout duration (NRBD): lights on
# [5] = man, GHB given orally; cited from earlier work
# [6] = cited from earlier work
# [7] = Table 2: i.p., all compounds 800 mg/kg, mice not fasting, n=6, 2′ or 15′ in label = preincubation before GHB
# [8] = Table 3: oral, GHB 800 mg/kg, PA 66 mg/kg, mice fasting 12 hours, n=6
# [9] = Table 4: GHB orally, GAL/GL/GA intraperitoneally, all 1200 mg/kg, mice fasting 1 hour, n=6
# [10] = rats, IP dosing at ZT19, comparators and ZT hours in the value
compound,measurement,setting,value
"O=C([O-])CCCO.[Na+] [GHB, gamma-hydroxybutyrate sodium salt]","Locomotor activity (LMA), hourly average",[1],significantly lower LMA compared to vehicle (ZT21)
same,Seizure-like activity,"[2]; GHB 1200 mg/kg orally, mice",appeared to induce seizure-like activity in many of the mice
same,"Percent of motor activity after GHB administration, 20′",[2]; [7],0 ± 0%
same,"Percent of motor activity after GHB administration, 40′",[2]; [7],0 ± 0%
same,"Percent of motor activity after GHB administration, 60′",[2]; [7],0 ± 0%
same,"Percent of motor activity after GHB administration, 80′",[2]; [7],20 ± 2%
same,"Percent of motor activity after GHB administration, 100′",[2]; [7],35 ± 12%
same,"Percent of motor activity after GHB administration, 120′",[2]; [7],65 ± 5%
same,"Percent of motor activity after GHB administration, 140′",[2]; [7],113 ± 20%
same,"Percent of motor activity after GHB administration, 160′",[2]; [7],124 ± 20%
same,"Percent of motor activity after GHB administration, 0′","[2]; Table 2: i.p., all compounds 800 mg/kg, mice not fasting, n=6, 2′ or 15′ in label = preincubation before GHB, % of baseline, mean ± S.E.M.",31 ± 7%
same,"Percent of motor activity after GHB administration (oral), 20′",[2]; [8],0 ± 0%
same,"Percent of motor activity after GHB administration (oral), 40′",[2]; [8],7 ± 3%
same,"Percent of motor activity after GHB administration (oral), 60′",[2]; [8],12 ± 6%
same,"Percent of motor activity after GHB administration (oral), 80′",[2]; [8],20 ± 8%
same,"Percent of motor activity after GHB administration (oral), 100′",[2]; [8],26 ± 5%
same,"Percent of motor activity after GHB administration (oral), 160′",[2]; [8],86 ± 1%
same,"Percent of motor activity after GHB administration (oral), 220′",[2]; [8],90 ± 8%
same,"Percent of motor activity after GHB administration (oral), 280′",[2]; [8],100 ± 7%
same,"Percent of motor activity after GHB administration, 20′",[2]; [9],27 ± 19%
same,"Percent of motor activity after GHB administration, 40′",[2]; [9],0 ± 0%
same,"Percent of motor activity after GHB administration, 60′",[2]; [9],3 ± 2%
same,"Percent of motor activity after GHB administration, 80′",[2]; [9],4 ± 1%
same,"Percent of motor activity after GHB administration, 100′",[2]; [9],5 ± 4%
same,"Percent of motor activity after GHB administration, 160′",[2]; [9],21 ± 10%
same,"Percent of motor activity after GHB administration, 220′",[2]; [9],61 ± 12%
same,"Percent of motor activity after GHB administration, 0′","[2]; Table 4: GHB orally, GAL/GL/GA intraperitoneally, all 1200 mg/kg, mice fasting 1 hour, n=6, mean ± S.E.M.",58 ± 9%
same,Duration of reproducible decrease in motor activity,"[2]; mouse, in vivo",more than 100 minutes
same,"Percent of motor activity after GHB administration (oral), 0′","[2]; mouse, in vivo",51 ± 1%
same,"Percent of motor activity after GHB administration, 0′","[2]; mouse, in vivo, po",94 ± 9%
same,"Percent of motor activity after GHB administration, 20′","[2]; mouse, in vivo, po",2 ± 2%
same,"Percent of motor activity after GHB administration, 40′","[2]; mouse, in vivo, po",0 ± 0%
same,"Percent of motor activity after GHB administration, 60′","[2]; mouse, in vivo, po",4 ± 1%
same,"Percent of motor activity after GHB administration, 80′","[2]; mouse, in vivo, po",10 ± 2%
same,"Percent of motor activity after GHB administration, 100′","[2]; mouse, in vivo, po",22 ± 7%
same,"Percent of motor activity after GHB administration, 160′","[2]; mouse, in vivo, po",104 ± 26%
same,"Percent of motor activity after GHB administration, 220′","[2]; mouse, in vivo, po",122 ± 23%
same,"Percent of motor activity after GHB administration, 280′","[2]; mouse, in vivo, po",117 ± 13%
same,Duration of depressed motor activity,"[2]; oral GHB at 1200 mg/kg, mice",at least 220 minutes
same,Passivity test scores (2-8),[3]; GHB 200 mg/kg i.p.,0
same,Passivity test scores (2-8),[3]; GHB 400 mg/kg i.p.,2 ± 0.38
same,Passivity test scores (2-8),[3]; GHB 600 mg/kg i.p.,4 ± 0.25
same,Passivity test scores (2-8),[3]; GHB 800 mg/kg i.p.,8 ± 0.42
same,Time to reliably induce sleep,"[3]; GHB 800 mg/kg i.p., non-fasting mice",≤ 10 min
same,Sleep time,"[3]; Table 5: orally, all compounds 7.93 mmol/kg, mice fasting 24 hours, n=8/group, mean ± S.E.M.",35 ± 10 min
same,GHB induced sleep time,"[3]; non-fasting mice, n=6/group, GHB 800 mg/kg i.p. alone or immediately after 800 mg/kg i.p. of the named compound",96.5 ± 5 min
same,Rats that displayed SW activity,"[4]; immediately following IP dosing, 8 rats",Seven of 8
same,Spike and wave (SW) activity in the EEG,"[4]; rats, IP dosing at ZT19, GHB 200 mg/kg in all drug conditions",elicited spike and wave activity (SW) in the EEG during the first hour following dosing
same,"Time spent awake (W), hourly",[4]; [10],reduced W compared to vehicle during ZT 21
same,"Time spent in non-REM (NR) sleep, hourly",[4]; [10],significantly greater than vehicle during ZT 21
same,NR bout duration (NRBD),"[4]; rats, ZT 1 and 3","increased NRBD compared to GHB+L-gul (ZT 1, 3), GHB+PA (60 mg/kg) (ZT 1, 3) and GHB+PA (120 mg/kg) (ZT 3)"
same,NR bout duration (NRBD),"[4]; rats, ZT 5",significantly decreased NRBD during ZT 5 compared to GHB+L-gul and GHB+PA (120 mg/kg)
same,Plasma half-life,[5],about 45 minutes
"O=C1O[C@H]([C@@H](O)CO)[C@H](O)[C@@H]1O [GL, L-gulono-γ-lactone]",Effect on motor depression by oral GHB,[2]; Example 5: named compound 1200 mg/kg i.p. with GHB 1200 mg/kg orally,further significantly enhanced
same,Effect on motor inhibition produced by GHB,"[2]; mouse, in vivo, po",neither oral gluconic acid lactone or gulonolactone augmented the depressant effects of GHB
same,Effect on GHB sleep time,"[3]; Example 6: 7.93 mmol/kg of named agent mixed in solution with GHB 7.93 mmol/kg, oral gavage, 8 mice",appeared to increase the sleep time
"O=C(O)Cc1ccccc1 [PA, phenylacetic acid]",Effect on inhibitory effects of GHB on motor activity,"[2]; Example 4: phenylacetic acid […] mg/kg mixed in solution with GHB 800 mg/kg, oral, vs GHB 800 mg/kg oral alone",significantly intensified and prolonged the inhibitory effects of GHB on motor activity
O=C([O-])Cc1ccccc1.[Na+] [phenylacetate sodium salt],Solubility in saline,[6],can be readily dissolved in saline
